Assay: In vivo hTauP301L model: spatial memory tests (T-maze, Object Location test)
Parameters: species or system mouse
Details: 35 days; for OLT discrimination index / T-maze percentage of success: adult mice
Protocol: In vivo hTau301L model was induced by stereotaxic injection of AAV-hTauP301L (AAV-hTau) particles as described in [Luengo, Enrique et al. "Implication of type 4 NADPH oxidase (NOX4) in tauopathy." Redox biology vol. 49 (2022): 102210. doi:10.1016/j.redox.2021.102210 ]. Control animals were injected with AAV-GFP. Evaluation of hyperphosphorylated tau in sarkosyl soluble and insoluble fractions; microgliosis; AT8 and AT180 by immunofluorescence; and cognitive test were performed as described previously [Luengo, Enrique et al. "Implication of type 4 NADPH oxidase (NOX4) in tauopathy." Redox biology vol. 49 (2022): 102210. doi:10.1016/j.redox.2021.102210 ].
Oral administration of Compound 1 at different dosages (20 mg·kg^-1 and 50 mg·kg^-1) was administered embedded in gelatine. The compound was given in a mixture of 10 % gelatine from porcine skin and 10 % sucralose in water, heated in a microwave oven. Before Compound 1 addition, gelatine mixture was left at RT. Afterwards, the compound was added, evenly mixed and plated 1 mL·well^-1 in a P24 plate. Before AAV injection, mice were trained to eat the gelatines by giving them one gelatine (without compound) per day for 4 consecutive days. After AAV injection, mice were treated once a day with control or Compound 1 gelatines for 35 consecutive days. This approach was followed in adult (3-4 months old) and aged (16-18 months old) mice injected with AAV-GFP or AAV-hTauP301L.
Example 2.5. Compound 1 ameliorates hTauP301L induced FTD and cognitive decline in adult (3-4 months old) mice. FTD was generated in adult male and female C57BL/6J mice (3-4 months old) by bihippocampal injection of AAV-hTau particles containing the P301L mutation. Mice were treated orally once a day with a single dose of 20 or 50 mg/kg of Compound 1 formulated in gelatines the day after stereotaxic delivery of AAVs (GFP or TauP301L, to controls and FTD, respectively). After 35 days treatment, hyperphosphorylated tau levels were evaluated by immunofluorescence and by WB in soluble and insoluble in sarkosyl fractions. Also, behavioural tests were conducted to study the cognition status of the mice.
Spatial memory was measured using the T-maze (Figure 9A) and the Object localization tests (OLT; Figure 9B).
Example 2.6. Compound 1 ameliorates hTauP301L induced FTD and cognitive decline in aged (16-18 months old) mouse. To include the aging effect in the FTD model, the previous experiments were replicated in male and female 16-18 months old C57/BL6J mice.

[1] = aged (16-18 months old) mice, 50 mg/kg oral

COc1ccc2c(c1)CC(c1c[nH]c3ccc(OC)cc13)N2 (stereo not drawn) [Compound 1, 5-Methoxy-3-(5-methoxyindolin-2-yl)-1H-indole]
OLT discrimination index (20 mg/kg or 50 mg/kg oral): dose-dependent improvement | T-maze percentage of success (20 mg/kg or 50 mg/kg oral): dose-dependent improvement | OLT discrimination index (50 mg/kg oral): total recovery | T-maze percentage of success (50 mg/kg oral): total recovery | spatial memory loss, OLT [1]: prevented | spatial memory loss, T-maze [1]: prevented

— patent publication EP4467137A1, “TREATMENT OF FRONTOTEMPORAL DEMENTIA OR FRONTOTEMPORAL LOBAR DEMENTIA” (Universidad Autónoma de Madrid, priority 2023, dated 2024)
